Experimental data as given in EPA's ToxRefDB 2.

How the values were obtained:
[1] = test system: mouse; conditions: Prenatal developmental toxicity study; swiss albino; Oral; Gavage/Intubation; dose end: 15 GD; group: developmental; systemic / in life observation / body weight / fetal weight
[2] = test system: mouse; conditions: Carcinogenicity; cd1; Oral; Feed; dose end: 104 week; group: systemic; systemic / pathology gross / liver / mass + systemic / pathology gross / liver / nodule(s) + systemic / pathology microscopic / liver / …
[3] = test system: rat; conditions: Subchronic oral toxicity in rodents, other, Feed, dose end: 90 day, group: systemic
[4] = test system: rat; conditions: Combined chronic toxicity/carcinogenicity, other, Oral, Feed, dose end: 104 week, group: systemic
[5] = test system: rat; conditions: Prenatal developmental toxicity study, other, Oral, Gavage/Intubation, dose end: 16 GD
[6] = test system: dog; conditions: Chronic toxicity, beagle, Oral, Feed, dose end: 52 week, group: systemic
[7] = test system: rat; conditions: Combined chronic toxicity/carcinogenicity, other, Oral, Feed, dose end: 25 month, group: systemic
[8] = test system: dog; conditions: Subchronic oral toxicity in nonrodent, beagle, Feed, dose end: 13 week, group: systemic
[9] = test system: rat; conditions: Multigenerational reproductive toxicity study, sprague dawley, Oral, Feed, dose end: 2 generation
[10] = test system: rabbit; conditions: Prenatal developmental toxicity study, new zealand white, Oral, Gavage/Intubation, dose end: 28 GD
[11] = test system: rat; conditions: Prenatal developmental toxicity study; wistar; Injection; Intraperitoneal; dose end: 18 GD; group: maternal; reproductive / reproductive performance / resorptions / resorptions + reproductive / reproductive performance / reproductive performance …
[12] = test system: rat; conditions: Prenatal developmental toxicity study; wistar; Injection; Intraperitoneal; dose end: 18 GD; group: developmental; developmental / developmental malformation / placenta / size + systemic / in life observation / body weight / fetal weight
[13] = test system: rabbit; conditions: Prenatal developmental toxicity study, new zealand white, Injection, Intravenous, dose end: 15 GD
[14] = test system: rat; conditions: Prenatal developmental toxicity study; sprague dawley; Injection; Intraperitoneal; dose end: 20 GD; group: maternal; reproductive / reproductive performance / reproductive performance other / runts + systemic / in life observation / body weight / body …
[15] = test system: dog; conditions: Subchronic oral toxicity in nonrodent, beagle, Feed, dose end: 13 week, group: systemic; remark: listed apart in the source
[16] = test system: mouse; conditions: Combined chronic toxicity/carcinogenicity, cd1, Oral, Feed, dose end: 95 week, group: systemic
[17] = test system: rabbit; conditions: Prenatal developmental toxicity study, new zealand white, Oral, Gavage/Intubation, dose end: 19 GD
[18] = test system: rat; conditions: Subchronic oral toxicity in rodents, sprague dawley, Feed, dose end: 13 week, group: systemic, systemic / hematology / leukocyte (wbc) count differential / leukocyte (wbc) + systemic / in life observation / body weight / body weight …
[19] = test system: rat; conditions: Combined chronic toxicity/carcinogenicity, sprague dawley, Oral, Feed, dose end: 104 week, group: systemic
[20] = test system: rat; conditions: Prenatal developmental toxicity study, sprague dawley, Oral, Gavage/Intubation, dose end: 15 GD
[21] = test system: dog; conditions: Chronic toxicity; beagle; Oral; Feed; dose end: 12 month; group: systemic; systemic / hematology / erythrocyte (rbc) count differential / erythrocyte (rbc) + systemic / hematology / hematocrit (hct) / hematocrit (…
[22] = systemic / in life observation / body weight / body weight + systemic / in life observation / food consumption / food efficiency
[23] = systemic / in life observation / body weight / body weight + systemic / in life observation / food consumption / food efficiency + systemic…
[24] = group: developmental, developmental / developmental malformation / bone / misaligned + developmental / developmental malformation / kidney / absent renal papilla…
[25] = group: maternal, systemic / in life observation / body weight / body weight gain + systemic / in life observation / food consumption / food consumption + …
[26] = systemic / clinical chemistry / alkaline phosphatase (alp/alk) / alkaline phosphatase (alp/alk) + systemic / pathology microscopic / liver…
[27] = systemic / organ weight / liver / absolute
[28] = group: offspring, systemic / in life observation / body weight / offspring (pup) weight
[29] = group: parental, systemic / in life observation / body weight / body weight + systemic / in life observation / body weight / body weight gain
[30] = group: developmental, systemic / in life observation / body weight / fetal weight
[31] = group: maternal, reproductive / reproductive performance / aborted / aborted + systemic / in life observation / body weight / body weight gain + systemic / …
[32] = group: developmental, developmental / developmental malformation / bone / [other] + developmental / developmental malformation / brain / hydrocephaly + …
[33] = group: maternal, reproductive / reproductive performance / resorptions / resorptions
[34] = group: maternal, reproductive / reproductive performance / resorptions / resorptions + reproductive / offspring survival early / live fetuses / live fetuses
[35] = systemic / clinical chemistry / alkaline phosphatase (alp/alk) / alkaline phosphatase (alp/alk) + systemic / clinical chemistry / aspartate …
[36] = systemic / organ weight / heart / absolute
[37] = systemic / in life observation / body weight / body weight + systemic / in life observation / body weight / body weight gain + systemic / in…
[38] = group: developmental, developmental / developmental malformation / other / other + systemic / in life observation / body weight / fetal weight + developmental / …
[39] = group: maternal, systemic / in life observation / body weight / body weight gain + systemic / in life observation / clinical signs / no feces + systemic / in…
[40] = group: maternal, systemic / in life observation / clinical signs / no feces + systemic / in life observation / clinical signs / soft stools
[41] = systemic / hematology / leukocyte (wbc) count differential / leukocyte (wbc) + systemic / pathology microscopic / liver / adenoma/carcinoma …
[42] = group: developmental, developmental / developmental malformation / bone / unossified
[43] = group: developmental, developmental / developmental malformation / bone / unossified + developmental / developmental malformation / bone / incomplete ossification…
[44] = group: maternal, systemic / in life observation / body weight / body weight + systemic / in life observation / body weight / body weight gain + systemic / in…

Nc1ccn([C@H]2CC[C@@H](CO)O2)c(=O)n1 [2',3'-Dideoxycytidine]
LEL [1]: 500 mg/kg/day
LOAEL [1]: > 500 mg/kg/day
NEL [1]: 200 mg/kg/day
NOAEL [1]: ≥ 500 mg/kg/day

CN(C)c1nc(=O)n(C2CCCCC2)c(=O)n1C [Hexazinone]
LEL [2]: 366 mg/kg/day
LOAEL [2]: 366 mg/kg/day
NEL [2]: 28 mg/kg/day
NOAEL [2]: 28 mg/kg/day
LOAEL [3, 22]: 440 mg/kg/day
LEL [3, 23]: 440 mg/kg/day
NEL [3, 23]: 81 mg/kg/day
NOAEL [3, 23]: 81 mg/kg/day
LOAEL [4, 22]: 50 mg/kg/day
LEL [4, 23]: 50 mg/kg/day
NEL [4, 23]: 10 mg/kg/day
NOAEL [4, 23]: 10 mg/kg/day
LEL [5, 24]: 900 mg/kg/day
LOAEL [5, 24]: 900 mg/kg/day
NEL [5, 24]: 400 mg/kg/day
NOAEL [5, 24]: 400 mg/kg/day
LOAEL ([5]; group: maternal, systemic / in life observation / body weight / body weight gain + systemic / in life observation / food consumption / food consumption): 400 mg/kg/day
LEL [5, 25]: 400 mg/kg/day
NEL [5, 25]: 100 mg/kg/day
NOAEL [5, 25]: 100 mg/kg/day
LOAEL [6, 26]: 37.6 mg/kg/day
NEL [6, 26]: 4.97 mg/kg/day
NOAEL [6, 26]: 4.97 mg/kg/day
LEL ([6]; systemic / pathology microscopic / liver / lesion(s) (nos) + systemic / pathology microscopic / liver / pigmentation): 37.6 mg/kg/day
LOAEL [7, 22]: 53.4 mg/kg/day
LEL [7, 23]: 53.4 mg/kg/day
NEL [7, 23]: 10.2 mg/kg/day
NOAEL [7, 23]: 10.2 mg/kg/day
LOAEL ([8]; systemic / clinical chemistry / alkaline phosphatase (alp/alk) / alkaline phosphatase (alp/alk) + systemic / in life observation / body …): 122 mg/kg/day
LEL [8, 27]: 5.1 mg/kg/day
NEL [8, 27]: < 5.1 mg/kg/day
NOAEL ([8]; systemic / organ weight / liver / absolute + systemic / clinical chemistry / alkaline phosphatase (alp/alk) / alkaline phosphatase (alp/alk…): 25.9 mg/kg/day
LEL [9, 28]: 154 mg/kg/day
LOAEL [9, 28]: 180 mg/kg/day
NEL [9, 28]: 15.3 mg/kg/day
NOAEL [9, 28]: 17.7 mg/kg/day
LEL [9, 29]: 143 mg/kg/day
LOAEL [9, 29]: 143 mg/kg/day
NEL [9, 29]: 14.3 mg/kg/day
NOAEL [9, 29]: 14.3 mg/kg/day
LEL [10, 30]: 125 mg/kg/day
LOAEL [10, 30]: 125 mg/kg/day
NEL [10, 30]: 50 mg/kg/day
NOAEL [10, 30]: 50 mg/kg/day
LEL [10, 31]: 125 mg/kg/day
LOAEL [10, 31]: 125 mg/kg/day
NEL [10, 31]: 50 mg/kg/day
NOAEL [10, 31]: 50 mg/kg/day

CN(Cc1cnc2nc(N)nc(N)c2n1)c1ccc(C(=O)N[C@@H](CCC(=O)O)C(=O)O)cc1 [Methotrexate]
LEL [11]: 0.5 mg/kg/day
LOAEL [11]: > 2 mg/kg/day
NEL [11]: < 0.5 mg/kg/day
NOAEL [11]: ≥ 2 mg/kg/day
LEL [12]: 0.5 mg/kg/day
LOAEL [12]: > 0.5 mg/kg/day
NEL [12]: < 0.5 mg/kg/day
NOAEL [12]: ≥ 0.5 mg/kg/day
LEL [13, 32]: 19.2 mg/kg/day
LOAEL [13, 32]: > 19.2 mg/kg/day
NOAEL [13, 32]: ≥ 19.2 mg/kg/day
LEL [13, 33]: 9.6 mg/kg/day
NEL [13, 33]: 4.8 mg/kg/day
LOAEL [13, 34]: > 19.2 mg/kg/day
NOAEL [13, 34]: ≥ 19.2 mg/kg/day
LEL [14]: 0.5 mg/kg/day
LOAEL [14]: > 2 mg/kg/day
NEL [14]: < 0.5 mg/kg/day
NOAEL [14]: ≥ 2 mg/kg/day

CCNc1nc(Cl)nc(NCC)n1 [Simazine]
LOAEL [15, 35]: 64.3 mg/kg/day
NOAEL [15, 35]: 8.2 mg/kg/day
LEL [15, 36]: 6.9 mg/kg/day
NEL [15, 36]: < 6.9 mg/kg/day
LOAEL ([16]; systemic / in life observation / body weight / body weight + systemic / in life observation / body weight / body weight gain): 132 mg/kg/day
LEL [16, 37]: 132 mg/kg/day
NEL [16, 37]: 5.3 mg/kg/day
NOAEL [16, 37]: 5.3 mg/kg/day
LOAEL ([17]; group: developmental, developmental / developmental malformation / other / other + systemic / in life observation / body weight / fetal weight): 200 mg/kg/day
LEL [17, 38]: 200 mg/kg/day
NEL [17, 38]: 75 mg/kg/day
NOAEL [17, 38]: 75 mg/kg/day
LOAEL [17, 39]: 75 mg/kg/day
NOAEL [17, 39]: 5 mg/kg/day
LEL [17, 40]: 5 mg/kg/day
NEL [17, 40]: < 5 mg/kg/day
LEL [18]: 12.6 mg/kg/day
LOAEL [18]: 12.6 mg/kg/day
NEL [18]: < 12.6 mg/kg/day
NOAEL [18]: < 12.6 mg/kg/day
LOAEL ([19]; systemic / hematology / leukocyte (wbc) count differential / leukocyte (wbc)): 4.17 mg/kg/day
LEL ([19]; systemic / hematology / leukocyte (wbc) count differential / leukocyte (wbc) + systemic / in life observation / body weight / body weight …): 4.17 mg/kg/day
NEL [19, 41]: 0.41 mg/kg/day
NOAEL [19, 41]: 0.41 mg/kg/day
LEL [20, 42]: 30 mg/kg/day
NEL [20, 42]: < 30 mg/kg/day
LOAEL [20, 43]: 300 mg/kg/day
NOAEL [20, 43]: 30 mg/kg/day
LEL [20, 44]: 300 mg/kg/day
LOAEL [20, 44]: 300 mg/kg/day
NEL [20, 44]: 30 mg/kg/day
NOAEL [20, 44]: 30 mg/kg/day
LEL [21]: 3.64 mg/kg/day
LOAEL [21]: 3.64 mg/kg/day
NEL [21]: 0.76 mg/kg/day
NOAEL [21]: 0.76 mg/kg/day
